The structures appear in SMILES notation. ≈ marks a conversion by molar mass, not a printed value.

Data set [1] is described as follows: Stability of compound in acetate buffer at pH 4. It counts as physicochemical.
The nature of data set [2]: Stability of compound in phosphate buffer at pH 6.5. Type of data set: physicochemical.
The nature of data set [3]: Stability of compound in 0.1 N aqueous HCl buffer at pH 1. Type of data set: physicochemical.
Data set [4] is described as follows: Half life in 0.1 N aqueous HCl buffer at pH 1. It counts as physicochemical. The following applies: for half-life: 0.1 N aqueous HCl buffer.
Data set [5] is described as follows: Trough plasma concentration in Sprague-Dawley rat assessed as atazanavir level at 3 mg/kg equiv of atazanavir administered orally measured after 24 hrs. It counts as ADME, organism-based. The following applies: in vivo, po; for concentration: read-out: Cmin; for Cmin: BLD = below limit of detection.
Data set [6] is described as follows: Solubility of compound in 0.1 N aqueous HCl buffer at pH 1. It counts as physicochemical.
Data set [7] is described as follows: Solubility of compound in acetate buffer at pH 4. Type of data set: physicochemical.
Data set [8] is described as follows: Solubility of compound in phosphate buffer at pH 6.5. Type of data set: physicochemical.
The nature of data set [9]: Ratio of AUClast in Sprague-Dawley rat assessed as atazanavir to parent level at 3 mg/kg equiv of atazanavir administered orally. The following applies: in vivo, po. It counts as ADME, organism-based.
Data set [10] is described as follows: Total AUC in Sprague-Dawley rat assessed as ratio of atazanavir to parent level at 3 mg/kg equiv of atazanavir administered orally. It counts as ADME, organism-based. The following applies: in vivo, po.
Data set [11] can be described thus: Cmax in Sprague-Dawley rat assessed as atazanavir level at 3 mg/kg equiv of atazanavir administered orally. It counts as ADME, organism-based. The arrangement: route oral, dose 3 mg/kg(equiv). The following applies: in vivo, po.
Data set [12] in a line: Relative oral bioavailability in Sprague-Dawley rat assessed as atazanavir level at 3 mg/kg equiv of atazanavir. It counts as ADME, organism-based. The following applies: in vivo.
The nature of data set [13]: Half life in phosphate buffer at pH 6.5. Conditions: for half-life: phosphate buffer; for t1/2: buffer. It counts as physicochemical.
The nature of data set [14]: AUClast in Sprague-Dawley rat assessed as atazanavir level at 3 mg/kg equiv of atazanavir administered orally. Also noted: route oral, time 0 - last, dose 3 mg/kg(equiv). It counts as ADME, organism-based. Conditions: in vivo, po.
A short description of data set [15]: Half life in acetate buffer at pH 4. It counts as physicochemical. The following applies: for half-life: acetate buffer; for t1/2: buffer.
Data set [16] can be described thus: Tmax in Sprague-Dawley rat assessed as atazanavir level at 3 mg/kg equiv of atazanavir administered orally. It counts as ADME, organism-based. Conditions: in vivo, po.
Data set [17] in a line: Half life in rat hepatocytes measured after 120 mins. Type of data set: ADME, cell-based, Hepatocyte.
Data set [18] can be described thus: Solubility of compound in fasted state simulated intestinal fluid. It counts as physicochemical. Conditions: simulated gi fluid.
Data set [19] can be described thus: Half life in rat plasma measured after 60 mins. Type of data set: ADME, cell-free.
The nature of data set [20]: Stability in rat plasma measured after 60 mins. It counts as ADME, cell-free. Conditions: 1 h.
Data set [21] in a line: Trough plasma concentration in Sprague-Dawley rat at 30 mg/kg, po measured after 24 hrs. It counts as ADME, organism-based. The following applies: read-out: Cmin.
The mark [22] stands for this setting: 0.1 N aqueous HCl buffer, read-out: solubility.
The mark [23] stands for this setting: acetate buffer, read-out: solubility.

`COC(=O)N[C@H](C(=O)N[C@@H](Cc1ccccc1)[C@H](CN(Cc1ccc(-c2ccccn2)cc1)NC(=O)[C@@H](NC(=O)OC)C(C)(C)C)OC(=O)OCOC(=O)[C@@H](N)C(C)C)C(C)(C)C`: the Stabilty entry in data set [1], in data set [2] and in data set [3] was “Unstable” in each case.

As to `COC(=O)N[C@H](C(=O)N[C@@H](Cc1ccccc1)[C@H](CN(Cc1ccc(-c2ccccn2)cc1)NC(=O)[C@@H](NC(=O)OC)C(C)(C)C)OC(=O)OCOC(=O)[C@H](C(C)C)N(C)C)C(C)(C)C`, the half-life is over 20.8 days in data set [4], 4.32 days in data set [13] and over 20.8 days in data set [15]. For the same molecule, the concentration in data set [5] is 1.9 nM. The solubility is over 1200 µg/mL in [6] (setting [22]), over 450 µg/mL in [7] (setting [23]) and 5 µg/mL (≈ 5.52 µM) in data set [8]. For the same molecule, the “Ratio AUC” value in data set [9] amounted to 2.3; in data set [10], 7.7. The Cmax in data set [11] is 573 nM. In addition, in data set [12], the F amounted to 46%. Further, the AUClast in data set [14] is 883 nM·h. The Tmax in data set [16] was determined as 24 min.

As for `COC(=O)N[C@H](C(=O)N[C@@H](Cc1ccccc1)[C@H](CN(Cc1ccc(-c2ccccn2)cc1)NC(=O)[C@@H](NC(=O)OC)C(C)(C)C)OC(=O)OCOC(=O)[C@@H](C(C)C)N(C)C)C(C)(C)C`, the half-life in data set [4] is over 20.8 days; in data set [13], 2.67 days; in data set [15], 15.7 days. In addition, the Cmin result in [5] is “Bld”. Also, the values for the solubility in data set [6] (setting [22]), in data set [7] (setting [23]) and in [8] were over 1800 µg/mL, over 500 µg/mL and 6 µg/mL (≈ 6.62 µM), respectively. Moreover, the entries for the “Ratio AUC” value in [9] and in [10] were 2 and 5.3, respectively. In data set [11], the maximum concentration (Cmax) was found to be 639 nM. The F in data set [12] is on record as 36%. The AUClast in data set [14] stood at 689 nM·h. Besides, the Tmax in data set [16] turned out to be 30 min.

With `COC(=O)N[C@H](C(=O)N[C@@H](Cc1ccccc1)[C@H](CN(Cc1ccc(-c2ccccn2)cc1)NC(=O)[C@@H](NC(=O)OC)C(C)(C)C)OC(=O)OCOC(=O)[C@@H](N)Cc1ccccc1)C(C)(C)C`, the half-life in data set [4] was 0.708 days; in [15], 0.688 days.

`COC(=O)N[C@H](C(=O)N[C@@H](Cc1ccccc1)[C@H](CN(Cc1ccc(-c2ccccn2)cc1)NC(=O)[C@@H](NC(=O)OC)C(C)(C)C)OC(=O)OC(C)OC(=O)[C@@H](N)C(C)C)C(C)(C)C` (stereo in doubt; 18): the half-life in [4] and in [15] was over 20.8 days throughout. For the same molecule, the Cmin result in [5] is given as “Bld”. Moreover, the results for the solubility in [6] (buffer) and in [7] (setting [23]) were over 1200 µg/mL and over 3000 µg/mL, respectively. The “Ratio AUC” value in [10] is reported as 2.6. Moreover, the Cmax in [11] came out at 320 nM. In data set [12], the F was determined as 53%. Also, the t1/2 in data set [13] is over 10.9 h. Moreover, in data set [14], the AUClast was found to be 1013 nM·h. In [16], the Tmax was 48 min.

Turning to `COC(=O)N[C@H](C(=O)N[C@@H](Cc1ccccc1)[C@H](CN(Cc1ccc(-c2ccccn2)cc1)NC(=O)[C@@H](NC(=O)OC)C(C)(C)C)OC(=O)OC(C)OC(=O)[C@@H](N)C(C)C)C(C)(C)C` (stereo in doubt; 20), the solubility in data set [6] (buffer) is over 3200 µg/mL; in data set [7] (buffer), over 1800 µg/mL. In addition, the t1/2 was 5.3 h in [13] and 13.93 days in data set [15].

Consider `COC(=O)N[C@H](C(=O)N[C@@H](Cc1ccccc1)[C@H](CN(Cc1ccc(-c2ccccn2)cc1)NC(=O)[C@@H](NC(=O)OC)C(C)(C)C)OC(=O)OC(C)OC(=O)[C@H](C(C)C)N(C)C)C(C)(C)C` (stereo in doubt; 21), for which the half-life in data set [4] is over 20.8 days; in [17], 25 min; in data set [19] it was 41 min; in data set [15] it was over 20.8 days. In addition, the solubility in data set [18] was 3 µg/mL (≈ 3.26 µM); in data set [6] (setting [22]), over 1900 µg/mL; in data set [7] (setting [23]), over 980 µg/mL; in data set [8], under 1 µg/mL. The concentration in data set [5] was found to be 1.9 nM. Further, the “Ratio AUC” value in [9] amounted to 1; in [10] it was 5.7. The peak concentration (Cmax) in [11] turned out to be 581 nM. In data set [12], the F worked out at 58%. In addition, the t1/2 in data set [13] is over 500 h. Further, the AUClast in data set [14] worked out at 1097 nM·h. The Tmax in data set [16] is 36 min.

As for `COC(=O)N[C@H](C(=O)N[C@@H](Cc1ccccc1)[C@H](CN(Cc1ccc(-c2ccccn2)cc1)NC(=O)[C@@H](NC(=O)OC)C(C)(C)C)OC(=O)OC(C)OC(=O)[C@H](C(C)C)N(C)C)C(C)(C)C` (stereo in doubt; 22), the solubility in data set [18] is 11 µg/mL (≈ 12 µM); in [6] (buffer), over 1800 µg/mL; in data set [7] (buffer) it was over 490 µg/mL. For the same molecule, the concentration in [5] was 16.7 nM. The “Ratio AUC” value in data set [9] was determined as 17; in data set [10], 92.1. The peak concentration (Cmax) in [11] was found to be 398 nM. Moreover, the F in [12] is listed as 103%. The figures for the t1/2 in data set [13] and in [15] were 214.9 h and 13.93 days, respectively. For the same molecule, the Stabilty entry in data set [20] is reported as “Stable”. Besides, the AUClast in data set [14] is 1958 nM·h. For the same molecule, the Tmax in data set [16] was found to be 48 min.

For the molecule `COC(=O)N[C@H](C(=O)N[C@@H](Cc1ccccc1)[C@H](CN(Cc1ccc(-c2ccccn2)cc1)NC(=O)[C@@H](NC(=O)OC)C(C)(C)C)OC(=O)OC(C)OC(=O)[C@@H](C(C)C)N(C)C)C(C)(C)C` (stereo in doubt; 23), the half-life in data set [4], in data set [13] and in [15] was over 20.8 days in each case. In addition, the solubility in data set [6] (setting [22]) is over 1700 µg/mL; in [7] (setting [23]), over 600 µg/mL; in data set [8] it was under 1 µg/mL.

Take `COC(=O)N[C@H](C(=O)N[C@@H](Cc1ccccc1)[C@H](CN(Cc1ccc(-c2ccccn2)cc1)NC(=O)[C@@H](NC(=O)OC)C(C)(C)C)OC(=O)OC(C)OC(=O)[C@@H](C(C)C)N(C)C)C(C)(C)C` (stereo in doubt; 24): the t1/2 in [4] (buffer) is over 20.8 days. Besides, the concentration in [5] came to 24 nM. Further, the solubility in data set [6] (buffer) was over 2600 µg/mL; in data set [7] (buffer) it was over 540 µg/mL. Moreover, the entries for the “Ratio AUC” value in data set [9] and in [10] were 22 and 104.8, respectively. For the same molecule, the Cmax in data set [11] is 324 nM. Also, in data set [12], the F is listed as 91%. In addition, the AUClast in data set [14] amounted to 1737 nM·h. Further, the time of peak concentration (Tmax) in data set [16] amounted to 30 min.

As for `COC(=O)N[C@H](C(=O)N[C@@H](Cc1ccccc1)[C@@H](O)CN(Cc1ccc(-c2ccccn2)cc1)NC(=O)[C@@H](NC(=O)OC)C(C)(C)C)C(C)(C)C` [ATAZANAVIR], the solubility in [7] (setting [23]) and in data set [8] was under 1 µg/mL throughout. Also, the concentration at 24 h in [21] stood at 5 nM.

Values taken from ChEMBL document CHEMBL4706615, “(Carbonyl)oxyalkyl linker-based amino acid prodrugs of the HIV-1 protease inhibitor atazanavir that enhance oral bioavailability and plasma trough concentration” (Eur J Med Chem, 2020).
